Data as given in patent publication US20220267350A1, “ADENOSINE RECEPTOR ANTAGONIST” (XIAMEN BIOTIME BIOTECHNOLOGY CO., LTD., priority 2019, published 2022).

How the values were obtained:
A2A receptor = A2A receptor (Homo sapiens, UniProt P29274); experiment: A2A receptor antagonist functional assay (cAMP, NECA at EC80); type: cell-based; details: A2A cell line (PerkinElmer ES-011-C); 5'-N-ethylcarboxamidoadenosine at EC80; cAMP readout; read-out: A2A Antagonistic function IC50
Procedure: (§1) The A2A cell line was derived from PerkinElmer (Product ID: ES-011-C); the A2B cell line was derived from PerkinElmer (Product ID: ES-013-C). The experimental procedure was referred to ACS Medicinal Chemistry Letters (2011) 2, 213-218; the specific test was completed by Pharmaron Beijing Co., Ltd. with the following steps: 10 nL of compound stock in DMSO (10 mM) followed by 10 μL of A2A or A2B cell suspension (30000 cells/mL) were transferred to assay wells of a 384-well plate at room temperature and incubated for 20 minutes at room temperature. The corresponding amount of 5′-N-ethylcarboxamidoadenosine at EC80 activation concentration was transferred to each test well, and incubated for another 30 minutes at 37° C., 5% CO2, 95% humidity, then Eu-cAMP tracer working solution and Ulight-anti-cAMP working solution were added to the cell culture plate at 5 uL/well in sequence, and the cell plate fluorescence was read with Envision (excitation wavelength: 320 nm, emission wavelength: 665 nm and 615 nm). The corresponding inhibition rate in each well was obtained according to the following formula, and a sigmoidal dose-inhibition rate curve was plotted using a non-linear regression model to calculate the IC50 value.

A2B receptor = target: T1, A2B receptor (Homo sapiens, UniProt P29275); experiment: A2B receptor antagonist functional assay (cAMP, NECA at EC80); type: cell-based; details: A2B cell line (PerkinElmer ES-013-C); 5'-N-ethylcarboxamidoadenosine at EC80; cAMP readout; read-out: A2B Antagonistic function IC50
T1 sequence (P29275 1-332): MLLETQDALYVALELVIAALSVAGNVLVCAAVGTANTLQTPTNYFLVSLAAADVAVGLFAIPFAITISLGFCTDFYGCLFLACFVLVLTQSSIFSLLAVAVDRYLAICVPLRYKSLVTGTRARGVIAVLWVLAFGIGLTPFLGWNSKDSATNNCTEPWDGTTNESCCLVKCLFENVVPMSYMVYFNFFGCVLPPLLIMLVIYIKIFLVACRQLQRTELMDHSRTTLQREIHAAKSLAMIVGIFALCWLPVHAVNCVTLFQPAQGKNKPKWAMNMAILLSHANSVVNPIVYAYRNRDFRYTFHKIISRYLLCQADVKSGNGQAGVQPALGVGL
Procedure: as §1

A2A receptor, sequence (P29274 whole entry): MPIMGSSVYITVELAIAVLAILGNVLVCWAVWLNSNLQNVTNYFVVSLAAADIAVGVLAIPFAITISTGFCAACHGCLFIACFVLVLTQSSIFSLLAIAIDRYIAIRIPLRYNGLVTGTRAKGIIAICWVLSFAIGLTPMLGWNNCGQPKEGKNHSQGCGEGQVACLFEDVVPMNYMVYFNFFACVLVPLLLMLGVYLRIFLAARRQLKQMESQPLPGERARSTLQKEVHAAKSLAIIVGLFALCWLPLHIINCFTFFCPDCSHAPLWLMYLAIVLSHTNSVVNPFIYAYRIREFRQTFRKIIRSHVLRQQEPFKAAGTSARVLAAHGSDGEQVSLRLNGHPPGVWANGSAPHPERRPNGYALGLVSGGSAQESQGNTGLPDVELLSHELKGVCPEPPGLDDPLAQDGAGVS

Row | SMILES | IC50 (A2A receptor) [nM] | IC50 (A2B receptor) [nM]
1 | Cc1ccc(-c2nc(N)nc3c(Cc4ccc(F)cc4)noc23)o1 [Compound 2] | 7 | 
2 | COc1ccc(Cc2noc3c(-c4ccc(C)o4)nc(N)nc23)cc1 [Compound 3] | 120 | 
3 | Cc1ccc(-c2nc(N)nc3c(Cc4ccc(Cl)cc4)noc23)o1 [Compound 5] | 31.8 | 
4 | Cc1ccc(-c2nc(N)nc3c(Cc4cccc(Cl)c4)noc23)o1 [Compound 6] | 3.7 | 
5 | Cc1ccc(-c2nc(N)nc3c(Cc4cccc(O)c4)noc23)o1 [Compound 7] | 11 | 11
6 | Cc1ccc(-c2nc(N)nc3c(Cc4ccccc4O)noc23)o1 [Compound 9] | 10.2 | 

The next lines start with the values.

Row | IC50 (A2A receptor) [nM] | IC50 (A2B receptor) [nM] | SMILES
7 | 3.8 | 149 | COc1cccc(Cc2noc3c(-c4ccc(C)o4)nc(N)nc23)c1 [Compound 1]
8 | 6.9 |  | COc1ccccc1Cc1noc2c(-c3ccc(C)o3)nc(N)nc12 [Compound 4]
9 | 80 |  | Cc1ccc(-c2nc(N)nc3c(Cc4ccc(O)cc4)noc23)o1 [Compound 8]
